Measured values: ChEMBL document CHEMBL1641454, “6-Benzylamino 4-oxo-1,4-dihydro-1,8-naphthyridines and 4-oxo-1,4-dihydroquinolines as HIV integrase inhibitors” (Bioorg Med Chem Lett, 2011)

Key:
[1] = test system: Human immunodeficiency virus 1; assay: Antiviral activity against VSV-G protein pseudotyped HIV1 luciferase reporter virus in mixture of human HeLa/JC53 cells assessed as luminescence after 48 hrs in presence of 40% human serum; format: functional, organism-based; conditions: Human immunodeficiency virus 1, Hela-JC53, 48 h
[2] = test system: Human immunodeficiency virus 1; assay: Antiviral activity against VSV-G protein pseudotyped HIV1 luciferase reporter virus in mixture of human HeLa/JC53 cells assessed as luminescence after 48 hrs; format: functional, organism-based; conditions: Human immunodeficiency virus 1, Hela-JC53, 48 h
[3] = Metabolic stability in human liver microsome assessed as compound remaining after 30 mins; format: ADME; conditions: liver microsomes, read-out: Stability
[4] = Volume of distribution in rat at 2 mg/kg, iv; format: ADME, organism-based; design: dose 2 mg/kg, route intravenous; conditions: in vivo
[5] = Half life in rat at 5 mg/kg, po; format: ADME, organism-based; design: dose 5 mg/kg, route oral; conditions: in vivo
[6] = AUC in rat at 5 mg/kg, po; format: ADME, organism-based; design: dose 5 mg/kg, route oral; conditions: plasma
[7] = Oral bioavailability in rat at 5 mg/kg; format: ADME, organism-based; conditions: in vivo
[8] = Cmax in rat at 5 mg/kg, po; format: ADME, organism-based; design: dose 5 mg/kg, route oral; conditions: in vivo
[9] = Plasma clearance in rat at 2 mg/kg, iv; format: ADME, organism-based; design: dose 2 mg/kg, route intravenous
[10] = Volume of distribution in Beagle dog at 1 mg/kg, iv; format: ADME, organism-based, Canis lupus familiaris; design: dose 1 mg/kg, route intravenous; conditions: in vivo
[11] = Plasma clearance in rhesus monkey at 1 mg/kg, iv; format: ADME, organism-based, Macaca mulatta; design: dose 1 mg/kg, route intravenous
[12] = Volume of distribution in rhesus monkey at 1 mg/kg, iv; format: ADME, organism-based, Macaca mulatta; design: dose 1 mg/kg, route intravenous; conditions: in vivo
[13] = Plasma clearance in Beagle dog at 1 mg/kg, iv; format: ADME, organism-based, Canis lupus familiaris; design: dose 1 mg/kg, route intravenous
[14] = Half life in rhesus monkey at 1 mg/kg, iv; format: ADME, organism-based, Macaca mulatta; design: dose 1 mg/kg, route intravenous; conditions: in vivo
[15] = Half life in Beagle dog at 1 mg/kg, iv; format: ADME, organism-based, Canis lupus familiaris; design: dose 1 mg/kg, route intravenous; conditions: in vivo

| Structure (SMILES) | EC50 [1] [nM] | EC50 [2] [nM] | remaining at 0.5 h [3] [%] | other results |
| --- | --- | --- | --- | --- |
| CC[C@@H](CO)n1cc(C(=O)O)c(=O)c2cc(Cc3cccc(Cl)c3F)c(OC)nc21 | 307 | 40 |  |  |
| COc1nc2c(cc1Cc1cccc(Cl)c1F)c(=O)c(C(=O)O)cn2[C@H](CO)C(C)C | 136 | 11 | 100 |  |
| CC(C)[C@@H](CO)n1cc(C(=O)O)c(=O)c2cc(Cc3cccc(Cl)c3F)ncc21 | 425 | 54 | 100 |  |
| CC(C)[C@@H](CO)n1cc(C(=O)O)c(=O)c2cc(Cc3cccc(Cl)c3F)cnc21 | 1940 | 65 | 99 |  |
| CC(C)[C@@H](CO)n1cc(C(=O)O)c(=O)c2nc(Cc3cccc(Cl)c3F)ccc21 |  | > 2500 |  |  |
| COc1nc(Cc2cccc(Cl)c2F)cc2c(=O)c(C(=O)O)cn([C@H](CO)C(C)C)c12 | 1770 | 291 |  |  |
| COc1nc2c(cc1Cc1cccc(Cl)c1F)c(=O)c(C(=O)O)cn2[C@@H](C)CO | 1050 | 177 |  |  |
| CCC[C@@H](CO)n1cc(C(=O)O)c(=O)c2cc(Cc3cccc(Cl)c3F)c(OC)nc21 | 1020 | 180 |  |  |
| CCCC[C@@H](CO)n1cc(C(=O)O)c(=O)c2cc(Cc3cccc(Cl)c3F)c(OC)nc21 | 245 | 20 |  |  |
| COc1nc2c(cc1Cc1cccc(Cl)c1F)c(=O)c(C(=O)O)cn2[C@H](CO)C(C)(C)C | 61 | 8.6 | 82 | Vd [4]: 2.31 L/kg; half-life [5]: 174 min; AUC [6]: 8500 ng·h/mL; bioavailability [7]: 31%; Cmax [8]: 1230 ng/mL; clearance [9]: 2.67 mL/min/kg |
| COc1nc2c(cc1Cc1cccc(Cl)c1F)c(=O)c(C(=O)O)cn2[C@H](CO)CC(C)C | 129 | 5.9 | 92 |  |
| CC(C)(C)[C@@H](CO)n1cc(C(=O)O)c(=O)c2cc(Cc3cccc(Cl)c3F)c(O)nc21 | 199 | 2.7 | 87 |  |
| CCOc1nc2c(cc1Cc1cccc(Cl)c1F)c(=O)c(C(=O)O)cn2[C@H](CO)C(C)(C)C | 19 | 1.4 | 84 |  |
| CC(C)Oc1nc2c(cc1Cc1cccc(Cl)c1F)c(=O)c(C(=O)O)cn2[C@H](CO)C(C)(C)C | 195 | 16 |  |  |
| CC(C)(C)[C@@H](CO)n1cc(C(=O)O)c(=O)c2cc(Cc3cccc(Cl)c3F)c(OCCO)nc21 | 2.4 | 0.9 | 45 |  |
| CC(C)(C)[C@@H](CO)n1cc(C(=O)O)c(=O)c2cc(Cc3cccc(Cl)c3F)c(N3CCOCC3)nc21 | 39 | 9.9 | 97 | Vd [4]: 4.02 L/kg; Vd [10]: 1.03 L/kg; clearance [11]: 19.7 mL/min/kg; half-life [5]: 156 min; AUC [6]: 2700 ng·h/mL; bioavailability [7]: 26%; Cmax [8]: 414 ng/mL; Vd [12]: 3.06 L/kg; clearance [13]: 10 mL/min/kg; half-life [14]: 486 min; clearance [9]: 7 mL/min/kg; half-life [15]: 156 min |
| COc1nc2c(cc1Nc1cccc(Cl)c1F)c(=O)c(C(=O)O)cn2[C@H](CO)C(C)C |  | > 2500 |  |  |
| COc1nc2c(cc1Nc1ccc(Cl)c(F)c1)c(=O)c(C(=O)O)cn2[C@H](CO)C(C)C |  | > 2500 |  |  |
| COc1nc2c(cc1Nc1ccc(F)cc1)c(=O)c(C(=O)O)cn2[C@H](CO)C(C)C |  | > 2500 |  |  |
| COc1nc2c(cc1NCc1cccc(Cl)c1F)c(=O)c(C(=O)O)cn2[C@H](CO)C(C)C | 2680 | 490 |  |  |
| COc1nc2c(cc1NCc1ccc(F)cc1)c(=O)c(C(=O)O)cn2[C@H](CO)C(C)C | 421 | 98 | 87 |  |
| COc1nc2c(cc1NCc1ccc(F)cc1)c(=O)c(C(=O)O)cn2[C@H](CO)C(C)(C)C | 385 | 150 |  |  |
| COc1nc2c(cc1NCc1cccc(F)c1)c(=O)c(C(=O)O)cn2[C@H](CO)C(C)C | 1590 | 1460 |  |  |
| COc1nc2c(cc1NCc1ccccc1F)c(=O)c(C(=O)O)cn2[C@H](CO)C(C)C | 283 | 81 | 97 |  |
| COc1nc2c(cc1NCc1ccc(F)cc1F)c(=O)c(C(=O)O)cn2[C@H](CO)C(C)C | 139 | 4.6 | 87 |  |
| COc1nc2c(cc1NCc1c(F)cc(F)cc1F)c(=O)c(C(=O)O)cn2[C@H](CO)C(C)C | 52 | 1.4 | 82 |  |
| COc1nc2c(cc1NCc1c(F)cc(F)cc1F)c(=O)c(C(=O)O)cn2[C@H](CO)C(C)(C)C | 42 | 7.6 | 75 | Vd [4]: 4.18 L/kg; Vd [10]: 1.93 L/kg; clearance [11]: 44.2 mL/min/kg; half-life [5]: 222 min; AUC [6]: 2890 ng·h/mL; bioavailability [7]: 23%; Cmax [8]: 666 ng/mL; Vd [12]: 3.93 L/kg; clearance [13]: 15.5 mL/min/kg; half-life [14]: 132 min; clearance [9]: 5.83 mL/min/kg; half-life [15]: 120 min |
| COc1cc2c(cc1Cc1cccc(Cl)c1F)c(=O)c(C(=O)O)cn2[C@H](CO)C(C)C [ELVITEGRAVIR] | 36 | 0.7 | 38 | Vd [4]: 2.74 L/kg; Vd [10]: 2.38 L/kg; clearance [11]: 7.17 mL/min/kg; half-life [5]: 174 min; AUC [6]: 5630 ng·h/mL; bioavailability [7]: 26%; Cmax [8]: 1140 ng/mL; Vd [12]: 1.99 L/kg; clearance [13]: 10 mL/min/kg; half-life [14]: 192 min; clearance [9]: 3.83 mL/min/kg; half-life [15]: 216 min |
